Assays:
[1] = system: healthy donor platelets; assay: FFN246 release with platelet activation by several platelet agonists (Example 3, FIG. 2); format: cell-based; conditions: for MFI of platelet releasate, FFN246+agonist: platelets loaded with 50 μM FFN246, 45 min, A23187 10 μM, ADP 25 μM, ristocetin 73 μM, collagen 63 nM, IIa 278 nM, PAR4 peptide 200 μM, SFLLRN 100 μM
Method: To determine if FFN246 loaded platelets release FFN246 with other platelet agonists and receptor mechanisms, FFN246 release was examined by incubating platelets with several platelet secretogogues, including collagen, IIa, PAR4, SFLLRN. […] Collagen stimulates the GP VI receptor; ADP stimulates the P2Y1 and P2Y12 receptors; IIa activates PAR1 and PAR4 receptors; SFLLRN binds to the PAR1 receptor; PAR4 agonist binds the PAR4 receptor.
To examine the effect of various platelet agonists on FFN246 release, healthy donor platelets were washed and incubated with and without FFN246 (50 μM) for 30 minutes, followed by the addition of 1 mM imipramine for 10 minutes to block further reuptake. Platelets were then incubated with the various conditions: (1) A23187 10 μM; (2) buffer alone; (3) ADP 25 μM; (4) ristocetin 73 μM; (5) collagen 63 nM; (6) IIa 278 nM; (7) PAR4 peptide 200 μM; (8) SFLLRN 100 μM: and (9) buffer only platelets+A23187 (10 μM) for 45 minutes. Following incubation with agonists, platelets were centrifuged for 10 minutes at 576×g. Fluorescence in the platelet releasate (i.e. supernatant) was measured in a BMG Labtech Fluostar Optima fluorometer at an appropriate emission/excitation spectra. Gain was set using the FFN246 releasate for each concentration at 50% of maximum signal.

[2] = system: healthy donor platelets; assay: FFN246 release from platelets activated with A23187 at varying FFN246 concentrations (Example 2, FIG. 1); format: cell-based; conditions: for MFI of platelet releasate, FFN246+A23187: A23187 45 min
Description: Calcium (Ca) ionophores mobilize calcium ions from intracellular storage sites or transport it through the plasma membrane to increase the concentration of cytoplasmic calcium ions (Ca^2+) and thereby activate platelets. The Ca ionophore A23187 works by triggering release of Ca^2+ from the dense tubular system of platelets and is a potent activator of platelets. A23187 was used to test if FFN246 loaded platelets would release FFN246 into the supernatant upon activation.
Platelets were then washed twice in buffer containing prostaglandin E1 (PGE1) and apyrase to minimize platelet activation. The washed platelets were resuspended in Mg^2+/Ca^2+ buffer without inhibitors. Washed platelets were then incubated with A23187 for 45 minutes, after which platelets were centrifuged for 10 minutes at 576×g. Fluorescence in the platelet releasate/supernatant was measured in a BMG Labtech Fluostar Optima fluorometer at an appropriate emission/excitation spectra. Gain was set using the FFN246 releasate for each concentration at 50% of maximum signal.

[3] = system: healthy donor washed platelets; assay: FFN246 release on platelet activation with HIT-like monoclonal antibody KKO (Example 4, FIG. 3); format: cell-based; conditions: for MFI of platelet releasate, FFN246+agonist or antibody, no heparin: platelets loaded with 50 μM FFN246, 45 min, collagen 63 nM, SFLLRN 100 μM, KKO alone 25 μg/mL
Method: To examine the effect of various platelet agonists on FFN246 release, healthy donor washed platelets were incubated with 50 μM FFN246 for 30 minutes, followed by addition of 1 mM imipramine for 10 minutes to block further reuptake. Platelets were then incubated with (1) A23187 10 μM; (2) collagen 63 nM; (3) SFLLRN 100 μM; (4) buffer; (5) KKO alone 25 μg/mL; (6) 0.5 U/mL heparin, 25 μg/ml KKO; (7) 10 U/mL heparin, 25 μg/mL KKO; (8) 0.5 U/mL heparin, 25 μg/mL TRA; and (9) A23187 10 μM (no FFN246). Incubation occurred for 45 minutes and platelets were centrifuged for 10 minutes at 576×g. Fluorescence in the platelet releasate was measured in a BMG Labtech Fluostar optima fluorometer at an appropriate emission/excitation spectra. Gain was set using the FFN246 releasate for each concentration at 50% of maximum signal.

[4] = system: healthy donor platelet rich plasma; assay: Release of FFN246 vs FFN102 from platelets exposed to calcium ionophore (Example 5, FIG. 4); format: cell-based; conditions: 100 μM FFN; for MFI of supernatant, FFN-loaded platelets incubated with ionophore: calcium ionophore
Method: Drawing of donor blood and preparation of donor platelets. 10-20 cc of blood were drawn off into Acid-Citrate Dextrose. 20 mL of whole blood generated 8-10 mL of platelet rich plasma (PRP). The whole blood was spun down at 180 g for 20 minutes without using the brake. Donor PRP was separated and the needed PRP was calculated for each of the FFN246 and buffer conditions. 25 μM of FFN246 was added to the PRP condition labeled “FFN246”. 2.5 μL/mL of PGE1 was added to each PRP condition simultaneously. The mixture was incubated at 37° C. for 30 minutes in a H2O bath. For example, for 2.5 mL PRP, 6.25 μL PGE1 and 6.25 μL FFN246 were added. FFN246 was not added to the buffer PRP condition.
The mixture was centrifuged at 700 g for 10 minutes with a brake at 22° C. to 26° C. The supernatant was discarded and the platelets were gently resuspended in PGE1/Apyrase buffer 1 mL per mL PRP for 15 minutes at room temperature. For example, 2.5 mL PRP was resuspended in 2.5 mL buffer. This was centrifuged at 700 g for 10 minutes at room temperature with a brake. The supernatant was discarded and FFN246 or platelets were resuspended into 2 mL/PRP of Ca/Mg buffer after using a pipette to completely remove PGE1/apyrase containing buffer above pellet. For example, 2.5 mL of platelets was resuspended with 5 mL of HT Ca/Mg.
When various conditions were tested, such as NP40, buffer alone, buffer+heparin, SFLLRN, and additional conditions dictated by an experiment, the following aliquots were added: agonist, plasma, or antibody; buffer added to agonist to make 50 μL total; and 150 μL of FFN246 buffer labeled platelets. The conditions were allowed to develop for 1 hour at 37° C. on an agitator. The conditions were then centrifuged at 700 g for 10 mins at room temperature with a brake. 75 μL of the supernatant was added per well in triplicate. Fluorometer analysis was ran within 1 hour at appropriate excitation/emission spectra (FFN246 ex/em (nm): 392/427).
The amount of FFN246 released from platelets was compared to that of FFN102, a dopaminergic fluorophore. Healthy donor platelet rich plasma was incubated with 100 μM of FFN246, FFN102, or buffer alone. Incubation and washing occurred per the protocol described in Example 1. Resuspended platelets were added either to calcium ionophore or buffer conditions for both FFN246 and FFN102. Supernatant was collected following centrifugation and analyzed using fluorometry.

[5] = target: norepinephrine transporters (NET) (Homo sapiens, UniProt P23975); conditions: relative to SERT uptake; cited from earlier work
norepinephrine transporters (NET), sequence (P23975 whole entry): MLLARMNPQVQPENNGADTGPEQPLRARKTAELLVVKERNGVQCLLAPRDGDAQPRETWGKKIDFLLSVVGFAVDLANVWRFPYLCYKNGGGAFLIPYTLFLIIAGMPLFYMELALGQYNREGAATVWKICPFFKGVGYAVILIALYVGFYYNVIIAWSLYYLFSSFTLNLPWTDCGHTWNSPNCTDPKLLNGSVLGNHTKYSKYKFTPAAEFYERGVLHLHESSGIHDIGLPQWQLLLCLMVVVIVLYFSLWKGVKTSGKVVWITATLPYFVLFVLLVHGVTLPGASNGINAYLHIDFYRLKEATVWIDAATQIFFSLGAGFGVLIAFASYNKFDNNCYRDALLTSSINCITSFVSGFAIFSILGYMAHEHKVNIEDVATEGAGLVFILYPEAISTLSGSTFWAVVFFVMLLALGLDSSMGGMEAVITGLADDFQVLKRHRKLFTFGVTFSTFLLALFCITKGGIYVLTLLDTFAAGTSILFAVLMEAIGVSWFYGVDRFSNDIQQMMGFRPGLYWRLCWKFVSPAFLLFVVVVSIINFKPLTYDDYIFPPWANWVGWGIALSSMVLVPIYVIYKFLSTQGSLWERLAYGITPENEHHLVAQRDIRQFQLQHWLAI

[6] = system: 5-HT receptors; conditions: cited from earlier work
[7] = target: dopamine transporters (DAT) (Homo sapiens, UniProt Q01959); conditions: relative to SERT uptake; cited from earlier work
dopamine transporters (DAT), sequence (Q01959 whole entry, species assumed): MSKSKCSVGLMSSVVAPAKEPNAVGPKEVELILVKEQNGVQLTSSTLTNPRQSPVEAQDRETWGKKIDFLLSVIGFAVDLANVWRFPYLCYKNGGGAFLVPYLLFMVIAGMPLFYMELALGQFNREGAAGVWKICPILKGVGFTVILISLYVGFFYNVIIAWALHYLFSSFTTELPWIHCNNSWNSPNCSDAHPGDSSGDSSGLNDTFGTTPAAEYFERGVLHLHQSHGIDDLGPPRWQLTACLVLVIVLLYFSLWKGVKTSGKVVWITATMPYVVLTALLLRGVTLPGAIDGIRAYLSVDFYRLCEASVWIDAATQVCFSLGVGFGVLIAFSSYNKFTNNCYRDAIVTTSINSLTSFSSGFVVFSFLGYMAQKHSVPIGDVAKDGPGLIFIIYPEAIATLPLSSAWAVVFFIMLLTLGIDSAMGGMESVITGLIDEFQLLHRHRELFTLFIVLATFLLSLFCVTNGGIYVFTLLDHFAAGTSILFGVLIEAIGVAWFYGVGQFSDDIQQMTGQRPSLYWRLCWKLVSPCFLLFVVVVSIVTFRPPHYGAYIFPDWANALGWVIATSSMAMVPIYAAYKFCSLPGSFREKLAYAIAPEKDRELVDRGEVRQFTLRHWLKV

[8] = system: platelets; assay: PF4 addition to assay conditions (platelet activation); format: cell-based; conditions: 30 μg/ml; healthy donor and HIT samples; absence of heparin addition
Description: PF4 addition to assay conditions. Platelet factor 4 (PF4) is a 31.2 kDa protein synthesized primarily by megakaryocytes and stored in platelet alpha granules. Positively charged PF4 forms ultra large immune complexes with negatively charged heparin in patients who develop pathological heparin induced thrombocytopenia (HIT).

## CNc1ccc2oc(C[C@H]3O[C@@]4(CC[C@H]3C)O[C@H]([C@H](C)C(=O)c3ccc[nH]3)[C@H](C)C[C@H]4C)nc2c1C(=O)O [A23187]
[1]; buffer only platelets + A23187 10 μM
  MFI of platelet releasate, buffer+calcium ionophore (no FFN246): 12526
[1]
  MFI of platelet releasate, FFN246+agonist: 31924
[2]; background paired with 10 uM FFN246 condition
  MFI of platelet releasate, buffer+A23187 (no FFN246): 10,100
[2]; background paired with 25 μM FFN246 condition
  MFI of platelet releasate, buffer+A23187 (no FFN246): 4,707
[2]; background paired with 50 μM FFN246 condition
  MFI of platelet releasate, buffer+A23187 (no FFN246): 3,461
[2]; background paired with 100 μM FFN246 condition
  MFI of platelet releasate, buffer+A23187 (no FFN246): 1,676
[3]; A23187 10 μM, no FFN246
  MFI of platelet releasate, buffer+calcium ionophore (no FFN246): 11399
[3]; A23187 10 μM
  MFI of platelet releasate, FFN246+agonist or antibody, no heparin: 32674

## Nc1ncnc2c1ncn2[C@@H]1O[C@H](COP(=O)(O)OP(=O)(O)O)[C@@H](O)[C@H]1O [ADP, adenosine diphosphate]
[1]
  MFI of platelet releasate, FFN246+agonist: 14013

## Cl.NCCc1cc(=O)oc2cc(O)c(Cl)cc12 [FFN102]
[4]
  MFI of supernatant, FFN-loaded platelets incubated with buffer: 7247+352
  MFI of supernatant, FFN-loaded platelets incubated with ionophore: 9845+352

## NCCc1ccc2[nH]c3cccc(F)c3c(=O)c2c1 [FFN246]
[4]
  MFI of supernatant, FFN-loaded platelets incubated with buffer: 15,692+1203
  MFI of supernatant, FFN-loaded platelets incubated with ionophore: 32901+448
[5]
  uptake by norepinephrine transporters (NET), lower than SERT: 23%
[6]
  activity at 5-HT receptors: no activity at 5-HT receptors
  binding to neurotransmitter receptors: does not bind to neurotransmitter receptors
[1]; 50 μM FFN246, no agonist
  MFI of platelet releasate, FFN246+buffer: 12199
[7]
  uptake by dopamine transporters (DAT), lower than SERT: 31%
[2]; 10 uM FFN246
  MFI of platelet releasate, FFN246+A23187: 25,790
[2]; 25 μM FFN246
  MFI of platelet releasate, FFN246+A23187: 36,124
[2]; 50 μM FFN246
  MFI of platelet releasate, FFN246+A23187: 30,470
[2]; 100 μM FFN246
  MFI of platelet releasate, FFN246+A23187: 35,405
[3]; 50 μM FFN246, no agonist
  MFI of platelet releasate, FFN246+buffer: 11688

## SFLLRN
[1]
  MFI of platelet releasate, FFN246+agonist: 26703
[3]; A23187 10 μM
  MFI of platelet releasate, FFN246+agonist or antibody, no heparin: 25426

## collagen
[1]
  MFI of platelet releasate, FFN246+agonist: 24369
[3]; A23187 10 μM
  MFI of platelet releasate, FFN246+agonist or antibody, no heparin: 24388

## ristocetin
[1]
  MFI of platelet releasate, FFN246+agonist: 12247

B1: PF4: 31.2 kDa protein synthesized primarily by megakaryocytes and stored in platelet alpha granules (protein, UniProt P02776 32-101, looked up)
Platelet factor 4: EAEEDGDLQCLCVKTTSQVRPRHITSLEVIKAGPHCPTAQLIATLKNGRKICLDLQAPLYKKIIKKLLES
[8]
  platelet activation by exogenous PF4 added to plasma conditions: led to platelet activation

Source: US20240118210A1, “FFN FLUORESCENCE RELEASE ASSAY (FFRA) AND METHODS OF USING SAME” (Duke University, priority 2021, published 2024)
